Measured values from article PMC11802822, “Comprehensive safety and toxicity analysis of 2,2’-Bipyridine derivatives in combating MRSA biofilm formation and persistence” (Frontiers in Cellular and Infection Microbiology, 2025).
In brackets after ≈: the same amount, converted by molar mass. Several values for one entry are separate records, joined by “and”; a condition that tells them apart may be missing. Equal entries are not always repeated. Where two headings read alike, the source gives them in different places.

Legend:
E. coli (MTCC739) [1] = experiment: Broth microdilution MIC; conditions: for MIC: Escherichia coli, MTCC739, 18 h, read-out: Minimum inhibitory concentration
M. luteus (MTCC 106) = experiment: Agar well diffusion; conditions: for zone of inhibition at 50 µg/mL: Micrococcus luteus, MTCC106
E. coli (MTCC739) [2] = experiment: Agar well diffusion; conditions: for zone of inhibition at 50 µg/mL: Escherichia coli, MTCC739
B. subtilis (MTCC 441) = experiment: Agar well diffusion; conditions: for zone of inhibition at 50 µg/mL: Bacillus subtilis, MTCC441
P. aeruginosa (MTCC1934) [3] = experiment: Broth microdilution MIC; conditions: for MIC: Pseudomonas aeruginosa, MTCC1934, 18 h, read-out: Minimum inhibitory concentration
V. cholerae (MTCC 3906) [4] = experiment: Broth microdilution MIC; format: cell-based, Vibrio cholerae; conditions: for MIC: Vibrio cholerae, MTCC3906, 18 h, read-out: Minimum inhibitory concentration
K. pneumoniae (MTCC 618) [5] = experiment: Broth microdilution MIC; conditions: for MIC: Klebsiella pneumoniae, MTCC618, 18 h, read-out: Minimum inhibitory concentration
S. aureus (MTCC737) [6] = experiment: Broth microdilution MIC; conditions: for MIC: Staphylococcus aureus, MTCC737, 18 h, read-out: Minimum inhibitory concentration
V. cholerae (MTCC 3906) [7] = experiment: Agar well diffusion; format: cell-based, Vibrio cholerae; conditions: for zone of inhibition at 50 µg/mL: Vibrio cholerae, MTCC3906
MRSA 831 [8] = experiment: Broth microdilution MIC; conditions: 18 h; for MIC: Staphylococcus aureus, MRSA, read-out: Minimum inhibitory concentration
MRSA 831 (MRSA) = experiment: Agar well diffusion; conditions: MRSA 831, 50 µg/ml, ND = Not detected; for zone of inhibition at 50 µg/mL: Staphylococcus aureus, MRSA
P. aeruginosa (MTCC1934) [9] = experiment: Agar well diffusion; conditions: for zone of inhibition at 50 µg/mL: Pseudomonas aeruginosa, MTCC1934
S. aureus (MTCC737) [10] = experiment: Agar well diffusion; conditions: for zone of inhibition at 50 µg/mL: Staphylococcus aureus, MTCC737
Cytotoxicity (MTT assay) = format: cell-based, murine; conditions: mouse
Method: The murine fibroblast 3T3 L-1 cell line was procured from the National Centre for Cell Science (NCCS), Pune, India. The 3T3 L-1 cells were incubated at 37°C in an incubator maintained at 95% humidity and 5% CO2 in DMEM medium complemented with 10% fetal bovine serum (FBS) and 1% penicillin-streptomycin.
Synthesized derivatives were evaluated for cytotoxicity in a 3T3-L1 cell line using the MTT assay ([Ernawati et al., 2022]). 8000 cells/well were added in 96-well tissue culture flat-bottom microtiter plates for 24 h and then incubated with synthesized molecules (0-400 µg/ml) for 48 h at 37°C in a CO2 incubator. DMSO was used as solvent at a concentration of 0.1% to ensure that any observed effects were not attributable to the solvent itself, whereas 1 µg/ml doxorubicin was used in toxicity tests as a positive control. Subsequently, the media was replaced with MTT solution (100 µl) diluted in fresh media (0.5 mg/ml), and incubated for 4 h. After incubation, 100 µl of stop solution (50% DMF with 20% SDS) was added to dissolve the formazan crystals, and the plates were further incubated for 1 h. Absorbance was measured at 570 nm using BioTEK Synergy multi-plate reader ([Mosmann, 1983]; [Pratelli et al., 2023]). Percent cell viability was calculated using the following formula:
Cell viability (%)=Absorbance (Untreated - blank) - Absorbance (Test sample- blank)/Absorbance (Untreated - blank)×100

MRSA 831 persister cells = experiment: Persister killing assay; format: cell-based, methicillin-resistant S. aureus; conditions: MRSA persisters; 4-fold MIC
Method: To evaluate the persister-killing activity of 2,2’-Bipy derivatives, MTCC 737 and MRSA 831 cells were grown overnight to the stationary phase at 37°C ([Kim et al., 2018b]). […]. The bacterial densities of persisters were recorded at OD600 at hourly intervals from 0 to 6 h.

MTCC 737 [11] = experiment: Transmission electron microscopy; conditions: S. aureus MTCC 737; 100 µg/ml, 12 h
MTCC 737 [12] = experiment: Biofilm imaging by confocal laser scanning microscopy (SYTO 9/PI); conditions: derivatives 100 µg/ml, 24 h
Source text: Using SYTO 9 and PI dyes. […] Two independent experiments were done in triplicate.

MTCC 737 [13] = experiment: Biofilm inhibition assay (crystal violet); conditions: S. aureus; at MIC or higher concentrations
Method: After incubation, cells were washed with 1X PBS, and stained with 100 µl of Crystal Violet dye for 15 min, and rinsed again with 1X PBS.

MRSA 831 [14] = experiment: Transmission electron microscopy; conditions: 100 µg/ml, 12 h
K. pneumoniae (MTCC 618) [15] = experiment: Agar well diffusion; conditions: 50 µg/ml, ND = Not detected
MTCC 737 [16] = experiment: PI uptake assay; format: cell-based, Staphylococcus aureus; conditions: derivatives 100 µg/ml, Polymyxin B 10 μM, 1 h
Method: (§1) MTCC 737 and MRSA 831 were grown, washed, and resuspended in 5 mM HEPES (pH 7.2), with the OD600 normalized to 0.5. […] Polymyxin B (10 μM), a membrane destabilizer, was used as a reference control. Drug-free and vehicle controls (cells treated with 0.5% DMSO) were included to analyze changes in fluorescence. After 1 h of treatment, cultures were centrifuged and stained with 5 µM PI dye for 15 min. Following staining, the cultures were washed twice to remove the extra dye, and fluorescence was recorded at 485 nm excitation and 525 nm emission wavelengths ([Zhou et al., 2020]).

MRSA 831 [17] = experiment: PI uptake assay; format: cell-based, methicillin-resistant S. aureus; conditions: derivatives 100 µg/ml, Polymyxin B 10 μM, 1 h
Method: as §1

Molecule | MIC (E. coli (MTCC739) [1]) | zone of inhibition at 50 µg/mL (M. luteus (MTCC 106)) | zone of inhibition at 50 µg/mL (E. coli (MTCC739) [2]) | zone of inhibition at 50 µg/mL (B. subtilis (MTCC 441)) | MIC (P. aeruginosa (MTCC1934) [3]) | MIC (V. cholerae (MTCC 3906) [4]) | MIC (K. pneumoniae (MTCC 618) [5]) | MIC (S. aureus (MTCC737) [6]) | zone of inhibition at 50 µg/mL (V. cholerae (MTCC 3906) [7]) | MIC (MRSA 831 [8]) | zone of inhibition at 50 µg/mL (MRSA 831 (MRSA)) | zone of inhibition at 50 µg/mL (P. aeruginosa (MTCC1934) [9]) | zone of inhibition at 50 µg/mL (S. aureus (MTCC737) [10]) | Effect on persister cell counts (MRSA 831 persister cells) | Zone of inhibition (MRSA 831 (MRSA)) | other results
CC1(C)S[C@@H]2[C@H](NC(=O)[C@H](N)c3ccccc3)C(=O)N2[C@H]1C(=O)O [Ampicillin, reference compound] | 6.25 µg/mL (≈ 17.9 µM) | 21 mm | 4 mm | 19.3 ± 0.58 mm | 25 µg/mL (≈ 71.5 µM) | 25 µg/mL (≈ 71.5 µM) | > 100 µg/mL |  |  |  |  |  |  |  |  | 
C#CCOc1cc(C(=NO)c2ccccc2OC)nc(-c2ccccn2)c1 [NPS2, N-[(4-propargyloxy-[2,2’-bipyridin]-6-yl)(2-methoxyphenyl)methylidene] hydroxylamine] | > 100 µg/mL | 17 mm | 9 mm | 8.33 ± 1.15 mm | > 100 µg/mL | 25 µg/mL (≈ 69.6 µM) | > 100 µg/mL | 50 µg/mL (≈ 139 µM) | 13 ± 1.73 mm | 50 µg/mL (≈ 139 µM) | 9.67 ± 0.58 mm | 8.33 ± 1.53 mm | 14 mm |  |  | 
COc1ccnc(-c2cc(OC)cc(C(=NO)c3ccccc3OC)n2)c1 [NPS3, N-[(4,4’-dimethoxyl[2,2’-bipyridin]-6-yl)(2-methoxyphenyl)methylidene] hydroxylamine] | > 100 µg/mL | 14.7 ± 1.15 mm |  | 4.67 ± 1.15 mm | > 100 µg/mL | 25 µg/mL (≈ 68.4 µM) | > 100 µg/mL | 50 µg/mL (≈ 137 µM) | 12.3 ± 2.52 mm | 50 µg/mL (≈ 137 µM) | 9.67 ± 0.58 mm | 11.3 ± 1.15 mm | 13.7 ± 1.15 mm | significantly reduced |  | IC50 at 24 h (Cytotoxicity (MTT assay); 3T3-L1 fibroblast cells, 3T3L-1 cells, 24 h, read-out: IC50 (cytotoxicity, MTT)): 253 µg/mL; IC50 at 48 h (Cytotoxicity (MTT assay); 3T3-L1 fibroblast cells, 3T3L-1 cells, 48 h, read-out: IC50 (cytotoxicity, MTT)): 274 µg/mL
COc1ccccc1C(=NO)c1cc(C)cc(-c2cc(C)ccn2)n1 [NPS4, N-[(4,4’-dimethyl[2,2’-bipyridin]-6-yl)(2-methoxyphenyl)methylidene] hydroxylamine] | > 100 µg/mL | 19.3 ± 0.58 mm | 9 ± 1 mm | 10 ± 1 mm | > 100 µg/mL | 12.5 µg/mL (≈ 37.5 µM) | > 100 µg/mL | 50 µg/mL (≈ 150 µM) | 17.7 ± 3.21 mm | 50 µg/mL (≈ 150 µM) | 14 mm | 18 ± 1 mm | 19 mm | significantly reduced | 14.33 ± 0.58 mm | Cell morphology (TEM) (MTCC 737 [11]): Significant morphological alterations; Biofilm disruption (CLSM) (MTCC 737 [12]): significant disruption and damage; Biofilm formation inhibition (in words) (MTCC 737 [13]): highly effective; IC50 at 24 h (Cytotoxicity (MTT assay)): 279 µg/mL; IC50 at 48 h (Cytotoxicity (MTT assay)): 240 µg/mL; Cell morphology (TEM) (MRSA 831 [14]): Significant morphological alterations
CCC(=NO)c1cc(OC)cc(-c2cc(OC)ccn2)n1 [NPS5, N-[1-(4,4’-dimethoxy[2,2’-bipyridin]-6-yl)propyldiene]hydroxylamine] |  |  |  |  |  |  |  |  |  |  |  |  |  |  | 14 mm and 14.33 ± 0.58 mm | Minimum inhibitory concentration (S. aureus (MTCC737) [6]; S. aureus (MTCC737), 18 h): 50 µg/mL (≈ 174 µM); Zone of inhibition (V. cholerae (MTCC 3906) [7]; V. cholerae (MTCC 3906), 50 µg/ml, ND = Not detected): 17.67 ± 3.21 mm; Minimum inhibitory concentration (E. coli (MTCC739) [1]; E. coli (MTCC739), 18 h): > 100 µg/mL; Minimum inhibitory concentration (MRSA 831 [8]; MRSA 831): 50 µg/mL (≈ 174 µM); Zone of inhibition (M. luteus (MTCC 106); M. luteus (MTCC 106), 50 µg/ml, ND = Not detected): 7.33 ± 2.89 mm; Zone of inhibition (E. coli (MTCC739) [2]; E. coli (MTCC739), 50 µg/ml, ND = Not detected): 9.00 ± 1.00 mm; Zone of inhibition (B. subtilis (MTCC 441); B. subtilis (MTCC 441), 50 µg/ml, ND = Not detected): 4.00 ± 0.00 mm; Zone of inhibition (P. aeruginosa (MTCC1934) [9]; P. aeruginosa (MTCC1934), 50 µg/ml, ND = Not detected): 18.00 ± 1.00 mm; Minimum inhibitory concentration (P. aeruginosa (MTCC1934) [3]; P. aeruginosa (MTCC1934), 18 h): > 100 µg/mL; Zone of inhibition (K. pneumoniae (MTCC 618) [15]): 13.00 ± 1.00 mm; Minimum inhibitory concentration (V. cholerae (MTCC 3906) [4]; V. cholerae (MTCC 3906), 18 h): 50 µg/mL (≈ 174 µM); Zone of inhibition (S. aureus (MTCC737) [10]; S. aureus (MTCC737), 50 µg/ml, ND = Not detected): 10.00 ± 1.73 mm; Minimum inhibitory concentration (K. pneumoniae (MTCC 618) [5]; K. pneumoniae (MTCC 618), 18 h): > 100 µg/mL
Polymyxin B [reference compound] |  |  |  |  |  |  |  |  |  |  |  |  |  |  |  | PI fluorescence (membrane integrity) (MTCC 737 [16]): higher fluorescence; PI fluorescence (membrane integrity) (MRSA 831 [17]): higher fluorescence
